# Laboratory results from patent US20260242413A1, “ENDOTOXIN NE[…]” (AMFERIA AB, priority 2023, published 2026).
# Where no end group is shown, it is not given here.
# Tested on: E. coli (CCUG 29300)
# Experiment: Endotoxin binding of AMP functionalised crosslinked hydrogel particle dispersion, chromogenic LAL endotoxin assay
# Format: cell-based
# Conditions: E. coli 10^6 CFU/ml, 37° C., 1 hour, 3 hours and 24 hours, FIG. 2 and 3
substance,measurement,value
"RRPRPRPRPWWWW-NH2 [RRP9W4N, PRELP derived amphiphilic antimicrobial peptide, free in PBS solution]",endotoxin neutralisation,neutralised endotoxins in all measured durations of incubation
